*1 amine or outer side, *2 acyl side, *3 side chain or, on linkers, in order; H or OH if unused. Where a SMILES comes first, the peptide text is derived from it. Bridges are numbered along the chain shown (N, C = ends). [ ]: non-standard residue; d: D form. The star is where a group is joined. hPhe(3,5-F2-4-CF3) = N[C@@H](CCc1cc(F)c(C(F)(F)F)c(F)c1)C(=O)O; hPhe(3-Cl-4-CF3) = N[C@@H](CCc1ccc(C(F)(F)F)c(Cl)c1)C(=O)O; NPrPhe(4-CF3) = CCCN[C@@H](Cc1ccc(C(F)(F)F)cc1)C(=O)O; X28 = Cc1ccc(C[C@@H](C(=O)[*:2])N(CC2CCCCC2)[*:1])cc1; NEtPhe(4-Me) = CCN[C@@H](Cc1ccc(C)cc1)C(=O)O; X8 = CCCN([C@@H](COCCC(C)C)C(=O)[*:2])[*:1]; X16 = O=C([C@@H](N[*:1])C1CC(F)(F)C1)[*:2]; NMeGly(cPent) = CN[C@H](C(=O)O)C1CCCC1; Hyp = O=C(O)[C@@H]1C[C@@H](O)CN1; NMeD = CN[C@@H](CC(=O)O)C(=O)O; NMeL = CN[C@@H](CC(C)C)C(=O)O; NMeAbu = CC[C@H](NC)C(=O)O; Morpholide = C1CN(*)CCO1; NMeA = CN[C@@H](C)C(=O)O; Ac5c = NC1(C(=O)O)CCCC1; Aze = O=C(O)[C@@H]1CCN1; Ac4c = NC1(C(=O)O)CCC1; NEtG = CCNCC(=O)O; Sar = CNCC(=O)O
How the values were obtained:
[1] = target: GDP-bound NRAS wild-type protein (Homo sapiens, UniProt P01111); test: Binding to NRAS by surface plasmon resonance (SPR), KD and KD ratio to KRAS
Sequence of GDP-bound NRAS wild-type protein (P01111 whole entry): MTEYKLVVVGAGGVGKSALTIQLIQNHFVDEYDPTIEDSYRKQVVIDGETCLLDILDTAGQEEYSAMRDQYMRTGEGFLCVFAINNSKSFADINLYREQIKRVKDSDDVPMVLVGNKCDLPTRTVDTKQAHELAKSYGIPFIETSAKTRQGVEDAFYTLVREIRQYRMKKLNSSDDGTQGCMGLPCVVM
Method in brief: (§1)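 GDP-bound biotin-Avi RAS captured at ~100–300 RU, 30°C, pH 7.4 HBS containing 10 µM GDP, 10 mM MgCl2, 1 mM DTT, 0.01% Tween 20 and 4% DMSO. KD by 1:1 fitting.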

[2] = tested on: human lung cancer strain NCI-H441; assay type: cell-based
Method in brief: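 Readout: […] after the ATP-based reagent. Compound: serial dilutions in dimethyl sulfoxide.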

HRAS wild-type protein = HRAS wild-type protein (Homo sapiens, UniProt P01112); test: Binding to HRAS by surface plasmon resonance (SPR), KD and KD ratio to KRAS
Sequence of HRAS wild-type protein (P01112 whole entry): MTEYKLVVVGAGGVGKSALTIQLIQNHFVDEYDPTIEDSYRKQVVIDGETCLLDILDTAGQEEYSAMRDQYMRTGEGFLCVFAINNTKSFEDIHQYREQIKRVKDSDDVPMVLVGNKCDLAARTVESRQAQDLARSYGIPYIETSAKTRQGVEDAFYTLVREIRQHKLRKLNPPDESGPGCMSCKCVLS
Method in brief: as §1

[3] = ratio of KD for GDP-bound NRAS wild-type protein to KD for KRAS
[4] = ratio of KD for HRAS wild-type protein to KD for KRAS
[5] = ratio of the KD value with respect to GDP-bound NRAS wild-type protein to the KD value with respect to KRAS
[6] = ratio of the KD value with respect to HRAS wild-type protein to the KD value with respect to KRAS
[7] = ratio of KD value for GDP-bound NRAS wild-type protein to KD value for KRAS (SPR)
[8] = ratio of KD value for HRAS wild-type protein to KD value for KRAS (SPR)

| IC50 [2] [nM] | SMILES | NRAS /KRAS [1, 3] | HRAS /KRAS (HRAS wild-type protein; [4]) | NRAS /KRAS [1, 5] | HRAS /KRAS (HRAS wild-type protein; [6]) | NRAS /KRAS [1, 7] | HRAS /KRAS (HRAS wild-type protein; [8]) |
| --- | --- | --- | --- | --- | --- | --- | --- |
| 38.3 | CCCN1C(=O)[C@@H]2CCN2C(=O)CN(C)C(=O)[C@H](C2CC(F)(F)C2)NC(=O)[C@H](CC(C)C)N(C)C(=O)C[C@@H](C(=O)N2CCOCC2)N(C)C(=O)[C@H](C2CCCC2)N(C)C(=O)C2(CCCC2)NC(=O)[C@@H]2CCCN2C(=O)[C@H](CCc2cc(F)c(C(F)(F)F)c(F)c2)NC(=O)CN(C)C(=O)[C@@H]1Cc1ccc(C(F)(F)F)cc1 [PP0787] ([NMeL][X16][Sar][Aze][NPrPhe(4-CF3)][Sar][hPhe(3,5-F2-4-CF3)]P[Ac5c][NMeGly(cPent)][NMeD]-Morpholide; lactam N-11) | C (A compound having a KD ratio of 0.1 or more and less than 3 is denoted as C) | B (a compound having 3 or more and less than 10 is denoted as B) |  |  |  |  |
| 184 | CC[C@H](C)[C@@H]1NC(=O)[C@H](CC)N(C)C(=O)C[C@@H](C(=O)N(C)C)N(CC)C(=O)[C@H](C2CCCC2)N(C)C(=O)C2(CCC2)NC(=O)[C@@H]2C[C@H](N3CCC(F)(F)CC3)CN2C(=O)[C@H](CCc2cc(F)c(C(F)(F)F)c(F)c2)NC(=O)CN(C)C(=O)[C@H](Cc2ccc(C(F)(F)F)cc2)N2CCCC[C@@H](C2=O)N(C)C(=O)CN(C)C1=O [PP0659] |  |  | B (a compound having 3 or more and less than 10 is denoted as B) | B (a compound having 3 or more and less than 10 is denoted as B) |  |  |
| 66.4 | CCO[C@@H]1C[C@H]2C(=O)NC3(CCC3)C(=O)N(C)[C@@H](C3CCCC3)C(=O)N(C)[C@H](C3CCCCC3)CC(=O)N(C)[C@@H](COC)C(=O)N[C@@H]([C@@H](C)CC)C(=O)N(C)CC(=O)N(C)[C@H]3C/C=C\CCN(C3=O)[C@@H](Cc3ccc(C(F)(F)F)cc3)C(=O)N(C)CC(=O)N[C@@H](CCc3cc(F)c(C(F)(F)F)c(F)c3)C(=O)N2C1 [PP1584] |  |  |  |  | B (a compound having 3 or more and less than 10 is denoted as B) | B (a compound having 3 or more and less than 10 is denoted as B) |
| 240 | CC[C@H](C)[C@@H]1NC(=O)[C@H](CC(C)C)N(C)C(=O)C[C@@H](C(=O)N2CCOCC2)N(C)C(=O)[C@H](C2CCCC2)N(C)C(=O)C2(CCCC2)NC(=O)[C@@H]2CCCN2C(=O)[C@H](CCc2ccc(C(F)(F)F)c(Cl)c2)NC(=O)CN(C)C(=O)[C@H](Cc2ccc(C)cc2)N(CC2CCCCC2)C(=O)CN(C)C(=O)CN(C)C1=O [PP0097] ([NMeL]I[Sar][Sar][X28][Sar][hPhe(3-Cl-4-CF3)]P[Ac5c][NMeGly(cPent)][NMeD]-Morpholide; lactam N-11) | C (A compound having a KD ratio of 0.1 or more and less than 3 is denoted as C) | C (A compound having a KD ratio of 0.1 or more and less than 3 is denoted as C) |  |  |  |  |
| 20.4 | CCCN1C(=O)CN(C)C(=O)CN(C)C(=O)[C@H]([C@@H](C)CC)NC(=O)[C@H](CC(C)C)N(C)C(=O)C[C@@H](C(=O)N2CCOCC2)N(C)C(=O)[C@H](C2CCCC2)N(C)C(=O)C2(CCC2)NC(=O)[C@@H]2CCCN2C(=O)[C@H](CCc2ccc(C(F)(F)F)c(Cl)c2)NC(=O)CN(C)C(=O)[C@@H]1COCCC(C)C [PP1817] ([NMeL]I[Sar][Sar][X8][Sar][hPhe(3-Cl-4-CF3)]P[Ac4c][NMeGly(cPent)][NMeD]-Morpholide; lactam N-11) |  |  |  |  | C (A compound having a KD ratio of 0.1 or more and less than 3 is denoted as C) | C (A compound having a KD ratio of 0.1 or more and less than 3 is denoted as C) |
| 1.9 | CCCN1C(=O)[C@@H]2CCN2C(=O)[C@H](C)N(C)C(=O)[C@H]([C@@H](C)CC)NC(=O)[C@H](CC)N(C)C(=O)C[C@@H](C(=O)N2CCOCC2)N(C)C(=O)[C@H](C2CCCC2)N(C)C(=O)C2(CCCC2)NC(=O)[C@@H]2CCCN2C(=O)[C@H](CCc2ccc(C(F)(F)F)c(Cl)c2)NC(=O)CN(C)C(=O)[C@@H]1Cc1ccc(C(F)(F)F)cc1 [PP0194] ([NMeAbu]I[NMeA][Aze][NPrPhe(4-CF3)][Sar][hPhe(3-Cl-4-CF3)]P[Ac5c][NMeGly(cPent)][NMeD]-Morpholide; lactam N-11) | C (A compound having a KD ratio of 0.1 or more and less than 3 is denoted as C) | B (a compound having 3 or more and less than 10 is denoted as B) |  |  |  |  |
| 50.2 | CCO[C@@H]1C[C@H]2C(=O)NC3(CC(C)(C)C3)C(=O)N(C)[C@@H](C3CCCC3)C(=O)N(C)[C@H](C(=O)N3CCOCC3)CC(=O)N(C)[C@@H](COC)C(=O)N[C@@H]([C@@H](C)CC)C(=O)N(C)CC(=O)N(C)[C@H]3CCCCCN(C3=O)[C@@H](Cc3ccc(C(F)(F)F)cc3)C(=O)N(C)CC(=O)N[C@@H](CCc3cc(F)c(C(F)(F)F)c(F)c3)C(=O)N2C1 [PP0844] | B (a compound having 3 or more and less than 10 is denoted as B) | B (a compound having 3 or more and less than 10 is denoted as B) |  |  |  |  |
| 85.4 | CCO[C@@H]1C[C@H]2C(=O)NC3(CC(F)(F)C3)C(=O)N(C)[C@@H](C(CC)CC)C(=O)N(C)C(C(C)C)CC(=O)N(C)[C@@H](CC)C(=O)N[C@@H]([C@@H](C)CC)C(=O)N(C)CC(=O)N(C)[C@H]3C/C=C\CCN(C3=O)[C@@H](Cc3ccc(C(F)(F)F)cc3)C(=O)N(C)CC(=O)N[C@@H](CCc3cc(F)c(C(F)(F)F)c(F)c3)C(=O)N2C1 (stereo partly drawn) [PP1591] |  |  |  |  | A (a compound having 10 or more and less than 20 is denoted as A) | A (a compound having 10 or more and less than 20 is denoted as A) |
| 85.9 | C=CC[C@H]1C(=O)N[C@@H]([C@@H](C)CC)C(=O)N(C)CC(=O)N(C)[C@H]2CCCCCN(C2=O)[C@@H](Cc2ccc(C(F)(F)F)cc2)C(=O)N(C)CC(=O)N[C@@H](CCc2cc(F)c(C(F)(F)F)c(F)c2)C(=O)N2C[C@H](OCC)C[C@H]2C(=O)N[C@](C)(CC=C)C(=O)N(C)[C@@H](C2CCCC2)C(=O)N(C)[C@H](C(=O)N2CCOCC2)CC(=O)N1C [PP0878] | B (a compound having 3 or more and less than 10 is denoted as B) | B (a compound having 3 or more and less than 10 is denoted as B) |  |  |  |  |
| 122 | CC[C@H](C)[C@@H]1NC(=O)[C@H](COC)N(C)C(=O)C[C@@H](C(=O)N2CCOCC2)N(C)C(=O)[C@H](C2CCCC2)N(C)C(=O)C2(CCC2)NC(=O)[C@@H]2C[C@@H](OCC(C)C)CN2C(=O)[C@H](CCc2cc(F)c(C(F)(F)F)c(F)c2)NC(=O)CN(C)C(=O)[C@H](Cc2ccc(C(F)(F)F)cc2)N2CCCCC[C@@H](C2=O)N(C)C(=O)CN(C)C1=O [PP0839] | B (a compound having 3 or more and less than 10 is denoted as B) | B (a compound having 3 or more and less than 10 is denoted as B) |  |  |  |  |
| 1.1 | CCCN1C(=O)CN(C)C(=O)CN(C)C(=O)[C@H]([C@@H](C)CC)NC(=O)[C@H](CC(C)C)N(C)C(=O)C[C@@H](C(=O)N(C)C)N(C)C(=O)[C@H](C2CCCC2)N(C)C(=O)C2(CCC2)NC(=O)[C@@H]2C[C@@H](OCC)CN2C(=O)[C@H](CCc2ccc(C(F)(F)F)c(Cl)c2)NC(=O)CN(C)C(=O)[C@@H]1Cc1ccc(C(F)(F)F)cc1 [PP0416] ([NMeL]I[Sar][Sar][NPrPhe(4-CF3)][Sar][hPhe(3-Cl-4-CF3)][Hyp](Et)[Ac4c][NMeGly(cPent)][NMeD]-NMe2; lactam N-11) |  |  | B (a compound having 3 or more and less than 10 is denoted as B) | C (A compound having a KD ratio of 0.1 or more and less than 3 is denoted as C) |  |  |
| 86.7 | CC[C@H](C)[C@@H]1NC(=O)[C@H](CC(C)C)N(C)C(=O)C[C@@H](C(=O)N2CCOCC2)N(C)C(=O)[C@H](C2CCCC2)N(C)C(=O)C2(CCCC2)NC(=O)[C@@H]2CCCN2C(=O)[C@H](CCc2ccc(C(F)(F)F)c(Cl)c2)NC(=O)CN(CC)C(=O)[C@H](Cc2ccc(C)cc2)N(CC)C(=O)CN(CC)C(=O)CN(C)C1=O [PP0030] ([NMeL]I[Sar][NEtG][NEtPhe(4-Me)][NEtG][hPhe(3-Cl-4-CF3)]P[Ac5c][NMeGly(cPent)][NMeD]-Morpholide; lactam N-11) | C (A compound having a KD ratio of 0.1 or more and less than 3 is denoted as C) | C (A compound having a KD ratio of 0.1 or more and less than 3 is denoted as C) |  |  |  |  |
| 6.1 | CCC[C@H]1C(=O)N[C@@H]([C@@H](C)CC)C(=O)N(C2CC2)CC(=O)N(C)[C@H]2C/C=C\CCN(C2=O)[C@@H](Cc2ccc(C)cc2)C(=O)N(C)CC(=O)N[C@@H](CCc2cc(F)c(C(F)(F)F)c(F)c2)C(=O)N2C[C@H](OCC)C[C@H]2C(=O)N(C)C2(CCC2)C(=O)N(C)[C@@H](C2CCCC2)C(=O)N(C)[C@H](C(=O)N2CCCC2)CC(=O)N1C [PP3113] | A (a compound having 10 or more and less than 20 is denoted as A) | A (a compound having 10 or more and less than 20 is denoted as A) |  |  |  |  |
| 4.5 | CCCN(C)C(=O)[C@@H]1CC(=O)N(C)[C@@H](CC(F)F)C(=O)N[C@@H]([C@@H](C)CC)C(=O)N(C)CC(=O)N(C)[C@H]2C/C=C\CCN(C2=O)[C@@H](Cc2ccc(C(F)(F)F)cc2)C(=O)N(C)CC(=O)N[C@@H](CCc2cc(F)c(C(F)(F)F)c(F)c2)C(=O)N2C[C@H](OCC)C[C@H]2C(=O)NC2(CC(C)(C)C2)C(=O)N(C)[C@@H](C2CCCC2)C(=O)N1C [PP2030] |  |  | A (a compound having 10 or more and less than 20 is denoted as A) | A (a compound having 10 or more and less than 20 is denoted as A) |  |  |

Source: patent EP4603105A1, “PHARMACEUTICAL COMPOSITION CONTAINING CYCLIC COMPOUND HAVING SELECTIVE KRAS INHIBITORY EFFECT AGAINST HRAS AND NRAS” (CHUGAI SEIYAKU KABUSHIKI KAISHA, priority 2022, dated 2024)
